Legend:
[1] = biological target: RORC2 ligand binding domain (6-His-RORC2 LBD) (Homo sapiens (Human), UniProt P51449); assay: Assay of co-activator recruitment by TR-FRET; type: biochemical; conditions: 6-His-RORC2 LBD / biotin-coactivator peptide SRC1-2 interaction, 3 hr room temperature
Protocol: The activity of compound of the invention can be determined by a co-activator recruitment by TR-FRET (time-resolved fluorescence resonance energy transfer) assay. […] When receptor and coactivator are bound to each other, upon shining light at 337 nm on the sample, the Europium emits fluorescence that excites APC due to close proximity (FRET) and this signal is measured at 665 nm. Due to the long lasting fluorescence emission of Europium, the non-specific, short-lived fluorescence is time-resolved (TR) from the fluorescence of interest. Inhibitors of the interaction of receptor and coactivator peptide are detected by a decrease in TR-FRET signal.
Specifically, in one embodiment the aforementioned assay was performed as outlined below. The assay was carried out in black polystyrene, 384-well plates in a total assay volume of 50.5 μL. The assay buffer contained 50 mM TRIS-HCL pH 7.5, 1 mM NaCl, 2 mM MgCl2, 0.5 mg/mL bovine serum albumin, and 5 mM dithiothreitol.

[2] = test system: IL-17 production from human Th17 cells; assay: Assay of IL-17 production from human Th17 cells; type: cell-based; conditions: 144 h; IL-17A in supernatant by ELISA (MSD) after 6 days, human CD4+ T cells differentiated into Th17; read-out: IC50
Protocol: The activity of compound of the invention can be also be determined by an IL-17 production from human Th17 cells assay. In general, this assay measures blockade of IL-17 production, the signature cytokine of T helper 17 (Th17) cells, by compounds. Purified human CD4+ T cells are stimulated with anti-CD3+anti-CD28 and incubated with a cytokine cocktail that induce their differentiation into Th17 in the absence or presence of various concentrations of compound. After 6 days, IL-17A concentration is measured in the cell culture supernatant with an ELISA kit (MSD).
Preparation of human CD4+ T cells. CD4+ T cells were purified from buffy coats from healthy donors (obtained from Massachusetts General Hospital) by negative selection the following procedure: Mixing 25 mL of blood with 1 mL of Rosette Sep CD4+ T cell enrichment cocktail (StemCell Technologies) followed by application of a layer of 14 mL Ficoll Paque Plus (Amersham GE Healthcare) and subsequent centrifugation at 1200 g for 20 min at room temperature. The Ficoll layer was then harvested and washed with phosphate saline buffer containing 2% (v/v) fetal bovine serum and cells were resuspended with RPMI medium containing 10% (v/v) fetal bovine serum and 10% (v/v) DMSO, frozen and kept in LN2 until used.
[…] Serial dilutions of compounds of the invention are prepared at 10× final concentration in X-Vivo15 medium containing 3% (v/v) DMSO.
On the second day of the assay, a 384-well tissue culture plate was coated with 10 μg/mL anti-hCD3 (eBioscience) at 50 μL/well. After 2 hr at 37° C., the supernatant is discarded and the coated plates are kept in a sterile tissue culture hood.
The cytokine plus anti-CD28 cocktail with CD4+ cells is prepared such that the cocktail is diluted 10-fold and cell density is 0.22×10^6/mL. The mixture is incubated 1 hr at 37° C.
90 μL (20,000 cells) dispensed per well in the anti-hCD3 coated plate prepared as noted above.
10 μL 10× compound is added per well (final DMSO=0.3%) from the compound plate that was previously prepared, followed by 6 days of incubation in a tissue culture vessel in a humidified chamber at 37° C. and 5% CO2.
Measurement is carried out in a Sector Imager 6000 by the same manufacturer. Signal units from the instrument are converted to pg/mL using a calibration curve with known amounts of IL-17A. IC50 values of test compounds (Table 2) are determined by the non-linear regression analysis of dose response curves.

RORC2 ligand binding domain (6-His-RORC2 LBD), sequence (P51449 269-508): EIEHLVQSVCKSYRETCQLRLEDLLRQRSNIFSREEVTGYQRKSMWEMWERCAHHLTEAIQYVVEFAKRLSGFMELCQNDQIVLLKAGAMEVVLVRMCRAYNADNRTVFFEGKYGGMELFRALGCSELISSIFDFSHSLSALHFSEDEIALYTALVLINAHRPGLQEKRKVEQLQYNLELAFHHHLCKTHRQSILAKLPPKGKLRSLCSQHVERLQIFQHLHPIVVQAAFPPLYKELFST

Row | IC50 [1] | IC50 [2] | SMILES
1 | 0.0169 µM | 0.31 µM | Cn1cc(C2CCN(C(=O)CC3CC3)CC2)c2cc(NS(=O)(=O)c3ccc(F)cc3)ccc21 [Example 13, N-(3-(1-(2-Cyclopropylacetyl)piperidin-4-yl)-1-methyl-1H-indol-5-yl)-4-fluorobenzenesulfonamide]
2 | 0.0068 µM | 0.189 µM | Cc1cccc(F)c1C(=O)N1CCC(c2cn(C)c3ccc(NS(=O)(=O)c4ccc(F)cc4)cc23)CC1 [Example 15, 4-fluoro-N-(3-(1-(2-fluoro-6-methylbenzoyl)piperidin-4-yl)-1-methyl-1H-indol-5-yl)benzenesulfonamide]
3 | 0.0031 µM | 0.0538 µM | CC(C)[C@H](C)C(=O)N1CCC(c2cn(C)c3ccc(NS(=O)(=O)c4ccc(F)cc4)cc23)CC1 [Example 16, (S)-N-(3-(1-(2,3-dimethylbutanoyl)pipendin-4-yl)-1-methyl-1H-indol-5-yl)-4-fluorobenzenesulfonamide]
4 | 0.0059 µM | 0.114 µM | Cn1cc(C2CCN(C(=O)C3CCCC3)CC2)c2cc(NS(=O)(=O)c3ccccc3F)ccc21 [Example 17, N-(3-(1-(cyclopentanecarbonyl)piperidin-4-yl)-1-methyl-1H-indol-5-yl)-2-fluorobenzenesulfonamide]
5 | 0.0106 µM | 0.267 µM | COc1cc(S(=O)(=O)Nc2ccc3c(c2)c(C2CCN(C(=O)C(C)C)CC2)cn3C)ccc1F [Example 22, 4-fluoro-N-(3-(1-isobutyrylpiperidin-4-yl)-1-methyl-1H-indol-5-yl)-3-methoxybenzenesulfonamide]
6 | 0.0013 µM | 0.0051 µM | Cc1nn(C)c(C)c1S(=O)(=O)Nc1ccc2c(c1)c(C1CCN(C(=O)[C@H](C)C(C)(C)C)CC1)cn2C [Example 26, (R)-1,3,5-trimethyl-N-(1-methyl-3-(1-(2,3,3-trimethylbutanoyl)piperidin-4-yl)-1H-indol-5-yl)-1H-pyrazole-4-sulfonamide]
7 | 0.01 µM | 0.0198 µM | Cc1noc(C)c1S(=O)(=O)Nc1ccc2c(c1)c(C1CCN(C(=O)[C@H](C)C(C)(C)C)CC1)cn2C [Example 30, (R)-3,5-dimethyl-N-(1-methyl-3-(1-(2,3,3-trimethylbutanoyl)piperidin-4-yl)-1H-indol-5-yl)isoxazole-4-sulfonamide]
8 | 0.0024 µM | 0.026 µM | C[C@@H](C(=O)N1CCC(c2cn(C)c3ccc(NS(=O)(=O)c4ccc(F)cc4)cc23)CC1)C12CC(C1)C2 [Example 31, (R)-N-(3-(1-(2-(bicyclo[1.1.1]pentan-1-yl)propanoyl)piperidin-4-yl)-1-methyl-1H-indol-5-yl)-4-fluorobenzenesulfonamide]

Reference: patent publication US10385036B2, “Sulfonamide-substituted indole modulators of RORC2 and methods of use thereof” (Pfizer Inc., priority 2015, dated 2019)
